Starred links: 1 amine or outer side, 2 acyl side, 3 side chain; linkers in the order of their positions; H or OH if unused. Positions of bridges follow the written chain, without caps; N, C: chain ends. Non-standard residues stand in square brackets, D forms with d. Residues, ends and D or L forms follow the SMILES beside them. Maleimide(3,4-diyl) = O=C1NC(=O)C([*:2])=C1[*:1]; Nle = CCCC[C@H](N)C(=O)O

Series [1] has as its target BODIPY-BAK/Bcl-xL interaction (Homo sapiens, UniProt Q07817). Briefly: Fluorescence anisotropy competition assay, BODIPY-BAK/Bcl-xL. The series is classed as binding. The note with it: 25 nM tracer, 150 nM protein, 50 mM phosphate, 200 mM NaCl, 0.02 mg mL-1 BSA, pH 7.50; 1 h, room temperature; triplicate; read-out: IC50, inhibition of the BODIPY-BAK/Bcl-xL interaction. As for the experimental part: (§1) Fluorescence anisotropy assays were performed in 384-well black plates (Greiner Bio-one).
(§2) Each experiment was run in triplicate and fluorescence anisotropy was measured using a Perkin Elmer EnVisionTM 2103 MultiLabel plate reader. […]
- 50 mM phosphate buffer at pH 7.5, containing 200 mM NaCl and 0.02 mg.mL-1 bovine serum albumin (BSA) for BODIPY-BAK/Bcl-xL. […]
(§3) 20 µL of assay buffer were first added to each well.
(§4) For each competition assay, 20 µL of a solution of α-helix mimetics (1 mM in 90:10 (v/v) assay buffer: DMSO) were added to the first column. The solution was well mixed and 20 µL were taken out and added to the next column and so on. This operation consisted on serial dilution of the peptides across the plate (24-points, 1/2 serial dilution). The tracer peptide and the targeted protein were added to each well to give a final concentration of 25 nM and […]
For each direct titration assay, 20 µL of a solution of the protein (60 µM in assay buffer) were added to the first column. […]
(§5) For control wells in both assays, the tracer peptide was replaced with an identical volume of assay buffer. […] Plates were read after 1 h of incubation […]
(§6) The average anisotropy (across three experimental replicates) and the standard deviation of these values were then calculated and fit to a sigmoidal logistic model (Equation 3) using OriginPro 9.0 which provided the IC50 and error values.
On the technique in general: Fluorescence polarisation rises when a labelled molecule tumbles more slowly, as on binding a larger partner.

The nature of series [2]: Trypsin proteolysis followed by LC-MS. The note with it: trypsin from bovine pancreas (isolated protease), pH 7.5, 1:10000 enzyme/substrate ratio, 50 mM phosphate buffer, 200 mM NaCl, pH 7.50, peptide 200 μM stock, 5% DMSO, LC-MS of intact peptide at 0, 5, 12, 21, 45, 90 min, read-out: t1/2, trypsin proteolysis. Format: in vitro ADME. On the procedure:
Proteolysis studies on BID peptides
Trypsin, modified sequencing grade from bovine pancreas (lyophilized powder, MW = 24 kDa, ≥ 4 units/mg protein) was purchased from Sigma-Aldrich and used without further purification. BID peptides (200 µM stock in PBS buffer pH 7.50, 5% DMSO) were treated with Trypsin (0.02 µM stock solutions in PBS buffer pH 7.50) in a 1:10000 enzyme/substrate ratio.
The degradation was followed with LCMS (Aeris Peptide LC-Column XB-C18 2.6 µm, 100x2.1 mm, injection volume: 5 µL, acetonitrile/water (0.1% formic acid) 5-95% gradient).
The degradation pattern of each peptide (figure A) could be identified by mass spectrometry.
The cleavage sites are marked by dotted lines and the subsequent fragment masses, shown in squares, are allocated to a number which is reported on the LCMS graph (graph B).
The LCMS traces (graph B) of each peptide incubated with Trypsin were recorded at the following successive times: 0, 5, 12, 21, 45 and 90 min.
(graph C) was integrated to extract kinetic values.

Series [3] concerns the target FITC-BID/Mcl-1 interaction (Homo sapiens, UniProt Q07820). The series can be described thus: Fluorescence anisotropy competition assay, FITC-BID/Mcl-1. The series is classed as binding. The settings on record: 25 nM tracer, 150 nM protein, 50 mM Tris, 150 mM NaCl, 0.61% Triton X-100, pH 7.40; 1 h, room temperature; triplicate; read-out: IC50, inhibition of the FITC-BID/Mcl-1 interaction. As for the experimental part: fluorescein-labelled FITC-Ahx-BID (80-102) was synthesised and purified as stated […]
as §1, §2
- 50 mM phosphate buffer at pH 7.5, containing 200 mM NaCl and 0.05% of tween for […]
as §3, §4, §5, §6

Series [4] can be described thus: Circular dichroism, % helicity. The series is classed as physicochemical. The note with it: CD, peptide 10-20 μM, calculated from MRE at 222 nm. As for the experimental part:
Samples were prepared in two different solvent systems (30% TFE:H2O, 30% CH3CN:water) to concentrations between 10 - 20 μM (Figure S 23). Considering the high number of hydrophobic residues in BID and S peptides, organic co-solvents were used to ensure good solubility and avoid aggregation at concentrations high enough for CD analyses. DMSO stocks of peptides were not used for CD due to its high absorbance below 230 nm.
The raw circular dichroism data obtained for the peptides was processed by the subtraction of the solvent signal and converted into a mean residue ellipticity:
Where = molar ellipticity[θ]MRE per residue, θ = circular dichroism at a given wavelength, c = molar concentration, l = path length in cm, R = number of residues in the peptide sequence.
Calculation of % helicity was performed by the following equation:[4]
Where: θH = Theoretical MRE for 100% helicity at 222 nm, θ0 = Theoretical MRE for 100% helicity at 222 nm at 0 °C = –44000, (∂θ/∂T) = temperature dependence of infinite helix = +250, T = temperature in °C, x = 3, Nr = number of residues in the peptide.
In both solvent systems, it is noteworthy that STA-peptides are more helical than RED-peptides or WT-peptides; with the exception of constrained S-Cys-peptides. The use of TFE as co-solvent in water enhances the α-helicity of both series of peptides compared to the use of acetonitrile in water. […]
thus bioactive) conformation. The S peptides show a low helix propensity which is consistent […]
Figure S 23: CD spectra A. and B. in 30% TFE:H 2O; C. and D. in 30% CH3CN:H 2O.
Table 1: Percentage of helicity in the three solvent systems […]
(also on this page, place not known: Molar residue ellipticity (deg.cm 2 .dmol -1 ) Molar residue ellipticity (deg.cm 2 .dmol -1 ) Molar residue ellipticity (deg.cm 2 .dmol -1 ) Molar residue ellipticity (deg.cm 2 .dmol -1 ) TFE:H2O; CH3CN:H2O.)

Chain of BODIPY-BAK/Bcl-xL interaction (Q07817 whole entry): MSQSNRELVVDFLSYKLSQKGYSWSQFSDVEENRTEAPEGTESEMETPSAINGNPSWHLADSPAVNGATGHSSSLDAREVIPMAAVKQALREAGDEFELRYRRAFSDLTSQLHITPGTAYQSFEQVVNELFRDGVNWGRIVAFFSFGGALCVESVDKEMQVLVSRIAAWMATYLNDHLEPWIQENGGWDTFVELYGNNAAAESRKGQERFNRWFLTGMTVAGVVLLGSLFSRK
Chain of FITC-BID/Mcl-1 interaction (Q07820 172-327 limits assumed): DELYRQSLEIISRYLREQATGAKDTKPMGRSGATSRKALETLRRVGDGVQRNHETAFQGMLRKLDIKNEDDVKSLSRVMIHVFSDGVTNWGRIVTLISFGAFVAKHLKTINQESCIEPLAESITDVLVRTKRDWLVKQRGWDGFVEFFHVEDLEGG

Take `CCCC[C@H](NC(=O)[C@@H]1CSC2=C(SC[C@H](NC(=O)[C@H](C)NC(=O)[C@H](CC(C)C)NC(=O)[C@H](Cc3c[nH]cn3)NC(=O)[C@H](CCCNC(=N)N)NC(=O)[C@H](C)NC(=O)[C@@H](NC(=O)[C@H](CC(N)=O)NC(=O)[C@H](CCCNC(=N)N)NC(=O)[C@@H](NC(=O)[C@@H](NC(=O)[C@H](CC(=O)O)NC(=O)[C@H](CCC(=O)O)NC(C)=O)[C@@H](C)CC)[C@@H](C)CC)[C@@H](C)CC)C(=O)N[C@@H](C(C)C)C(=O)NCC(=O)N[C@@H](CC(=O)O)C(=O)N1)C(=O)NC2=O)C(=O)N[C@@H](CC(=O)O)C(=O)N[C@@H](CCCNC(=N)N)C(=O)N[C@@H](CO)C(=O)N[C@H](C(=O)N[C@@H](Cc1c[nH]c2ccccc12)C(N)=O)[C@@H](C)CC` [3a] (Ac-EDIIRNIARHLACVGDC[Nle]DRSIW-NH2; linker 13-17 via Maleimide(3,4-diyl)): the IC50 in series [1] was found to be 19.4 µM; in series [3], 16.6 µM. Besides, the half-life in series [2] is 75 min.
With `CCCC[C@H](NC(=O)[C@H](CS)NC(=O)[C@H](CC(=O)O)NC(=O)CNC(=O)[C@@H](NC(=O)[C@H](CS)NC(=O)[C@H](C)NC(=O)[C@H](CC(C)C)NC(=O)[C@H](Cc1c[nH]cn1)NC(=O)[C@H](CCCNC(=N)N)NC(=O)[C@H](C)NC(=O)[C@@H](NC(=O)[C@H](CC(N)=O)NC(=O)[C@H](CCCNC(=N)N)NC(=O)[C@@H](NC(=O)[C@@H](NC(=O)[C@H](CC(=O)O)NC(=O)[C@H](CCC(=O)O)NC(C)=O)[C@@H](C)CC)[C@@H](C)CC)[C@@H](C)CC)C(C)C)C(=O)N[C@@H](CC(=O)O)C(=O)N[C@@H](CCCNC(=N)N)C(=O)N[C@@H](CO)C(=O)N[C@H](C(=O)N[C@@H](Cc1c[nH]c2ccccc12)C(N)=O)[C@@H](C)CC` [1a] (Ac-EDIIRNIARHLACVGDC[Nle]DRSIW-NH2), the IC50 was 70.9 µM in series [1] and 23.4 µM in series [3]. Also, in series [2], the half-life stood at 22 min.
Take `CCCC[C@H](NC(=O)[C@@H]1CCSC2=C(SCC[C@H](NC(=O)[C@H](C)NC(=O)[C@H](CC(C)C)NC(=O)[C@H](Cc3c[nH]cn3)NC(=O)[C@H](CCCNC(=N)N)NC(=O)[C@H](C)NC(=O)[C@@H](NC(=O)[C@H](CC(N)=O)NC(=O)[C@H](CCCNC(=N)N)NC(=O)[C@@H](NC(=O)[C@@H](NC(=O)[C@H](CC(=O)O)NC(=O)[C@H](CCC(=O)O)NC(C)=O)[C@@H](C)CC)[C@@H](C)CC)[C@@H](C)CC)C(=O)N[C@@H](C(C)C)C(=O)NCC(=O)N[C@@H](CC(=O)O)C(=O)N1)C(=O)NC2=O)C(=O)N[C@@H](CC(=O)O)C(=O)N[C@@H](CCCNC(=N)N)C(=O)N[C@@H](CO)C(=O)N[C@H](C(=O)N[C@@H](Cc1c[nH]c2ccccc12)C(N)=O)[C@@H](C)CC` [3b]: in series [2], the half-life came to 84 min. Further, in series [4] (30% CH3CN:H2O), the “Percentage of helicity, 30% CH3CN:H2O” value is listed as 43%. Besides, the “Percentage of helicity, 30% TFE:H2O” value in series [4] is reported as 47%.
Consider `CCCC[C@H](NC(=O)[C@H](CCS)NC(=O)[C@H](CC(=O)O)NC(=O)CNC(=O)[C@@H](NC(=O)[C@H](CCS)NC(=O)[C@H](C)NC(=O)[C@H](CC(C)C)NC(=O)[C@H](Cc1c[nH]cn1)NC(=O)[C@H](CCCNC(=N)N)NC(=O)[C@H](C)NC(=O)[C@@H](NC(=O)[C@H](CC(N)=O)NC(=O)[C@H](CCCNC(=N)N)NC(=O)[C@@H](NC(=O)[C@@H](NC(=O)[C@H](CC(=O)O)NC(=O)[C@H](CCC(=O)O)NC(C)=O)[C@@H](C)CC)[C@@H](C)CC)[C@@H](C)CC)C(C)C)C(=O)N[C@@H](CC(=O)O)C(=O)N[C@@H](CCCNC(=N)N)C(=O)N[C@@H](CO)C(=O)N[C@H](C(=O)N[C@@H](Cc1c[nH]c2ccccc12)C(N)=O)[C@@H](C)CC` [1b], for which, in series [2], the half-life is 32 min. Further, in series [4], the “Percentage of helicity, 30% TFE:H2O” value is 23%.

Source of the values: paper PMC5618791, “Double quick, double click reversible peptide “stapling”” (Chemical Science, 2017).
